Assays:
Type in all cases: in vivo
green bristlegrass [1] = experiment: Herbicidal activity test for indoor post-emergence spraying on stems and leaves; set-up: key: grade level by weed remaining vs blank control, e.g. 5 = 10.1-15%; details: 150 g a.i./ha, visual inspection 21 days after treatment
Summary of the method: (§1)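 Following national standard NY/T 1155.4-2006, seedlings raised in a greenhouse receive stem-and-leaf spraying after emergence; 21 days on, surviving weed is compared by eye with the blank control area and assigned a graded level (e.g., level 6 = 15.1–25%).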

Barnyard grass [2] = experiment: as above; set-up: key: grade level by weed remaining vs blank control, e.g. 5 = 10.1-15%; details: 150 g a.i./ha, visual inspection 21 days after treatment
Summary of the method: as §1

Humulus scandens [3] = experiment: as above; set-up: key: grade level by weed remaining vs blank control, e.g. 5 = 10.1-15%; details: 150 g a.i./ha, visual inspection 21 days after treatment
Summary of the method: as §1

Amaranthus retroflexus [4] = experiment: as above; set-up: key: grade level by weed remaining vs blank control, e.g. 5 = 10.1-15%; details: 150 g a.i./ha, visual inspection 21 days after treatment
Summary of the method: as §1

Digitaria sanguinalis [5] = experiment: as above; set-up: key: grade level by weed remaining vs blank control, e.g. 5 = 10.1-15%; details: 150 g a.i./ha, visual inspection 21 days after treatment
Summary of the method: as §1

Piemarker [6] = experiment: as above; set-up: key: grade level by weed remaining vs blank control, e.g. 5 = 10.1-15%; details: 150 g a.i./ha, visual inspection 21 days after treatment
Summary of the method: as §1

Convolvulus arvensis = experiment: Field test for weed control in a corn field; details: 150 g a.i./ha, after treatment
Summary of the method: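 Post-emergence herbicidal activity on Convolvulus arvensis was scored in a corn field on a 1-9 scale, based on symptoms and damage severity. Each level corresponds to the weed remaining as a percentage of the blank control area. Sprays of 10% emulsifiable concentrate at 150 g(a.i.)/ha went on at the corn 2–5 leaf stage, with four replicates of 20 m^2 per treatment.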

green bristlegrass [7] = experiment: Field test for weed control in a corn field; details: 150 g a.i./ha, after treatment
Summary of the method: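 Herbicidal activity against green bristlegrass was assessed in corn field plots of 20 m^2 per GB/T 17980.42-2000. Test agents, formulated as 10% emulsifiable concentrates, were applied in water at 150 g(a.i.)/ha at the corn 2 leaves to 5 leaves stage, repeated 4 times. A 25% mesotrione oil dispersion served as the control agent, and weed damage was rated on levels 1-9.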

Portulaca oleracea = experiment: Field test for weed control in a corn field; details: 150 g a.i./ha, after treatment
Summary of the method: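 Post-emergence weed control was evaluated in a corn field by the GB/T 17980.42-2000 method. Emulsifiable concentrates (10%) in water were applied as sprays at 150 g(a.i.)/ha at the 2-5 leaf corn stage, in four replicate 20 m^2 plots. A 25% mesotrione oil dispersion served as control agent. Effects were graded 1-9 relative to weed remaining in blank control areas.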

Barnyard grass [8] = experiment: Field test for weed control in a corn field; details: 150 g a.i./ha, 30 days after treatment
Summary of the method: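 Herbicidal activity against barnyard grass was assessed in corn field plots of 20 m^2, with four replicates per treatment. Compounds were applied as water-diluted 10% emulsifiable concentrates at 150 g(a.i.)/ha at the 2-5 leaf corn stage, with 25% mesotrione oil dispersion as the reference agent. Damage was scored on a 1-9 scale against untreated blank plots.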

Amaranthus retroflexus [9] = experiment: Field test for weed control in a corn field; details: 150 g a.i./ha, 30 days after treatment
Summary of the method: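 Post-emergence control of Amaranthus retroflexus was assessed in corn plots using the GB/T 17980.42-2000 method. Emulsifiable concentrates (10%) in water were applied by spraying at the 2- to 5-leaf crop stage on 20 m^2 plots, four replicates each, alongside a mesotrione 25% oil dispersion reference. Herbicidal activity was scored on 1-9 levels by weed amount relative to blank control areas.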

goosegrass = experiment: Field test for weed control in a corn field; details: 150 g a.i./ha, after treatment
Summary of the method: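 In this field trial in corn, run per GB/T 17980.42-2000, test agents prepared as 10% emulsifiable concentrates were applied in water as sprays at 150 g(a.i.)/ha at the 2- to 5-leaf corn stage. Each treatment covered 20 m^2 and was repeated 4 times. Goosegrass control was scored 1-9 relative to weed remaining in blank control areas.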

Solanum nigrum = experiment: Field test for weed control in a corn field; details: 150 g a.i./ha, 30 days after treatment
Summary of the method: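 In a corn field trial based on GB/T 17980.42-2000, 10% emulsifiable concentrates diluted in water were sprayed at 150 g(a.i.)/ha at the 2 to 5 leaf stage of corn. Each treatment used 20 m^2 plots and was repeated 4 times, with 25% mesotrione oil dispersion as the reference agent. Solanum nigrum damage was scored on a 1-9 scale against blank control plots.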

Acalypha australis = experiment: Field test for weed control in a corn field; details: 150 g a.i./ha, after treatment
Summary of the method: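 Herbicidal activity against weeds was assessed in corn plots by the GB/T 17980.42-2000 method. Corn at the 2–5 leaf stage received water sprays of 10% emulsifiable concentrates at 150 g(a.i.)/ha, four repeats per treatment over 20 m^2. A 25% mesotrione oil dispersion was the reference. Damage symptoms and severity were rated on levels 1-9 relative to weeds in the blank control area.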

Digitaria sanguinalis [10] = experiment: Field test for weed control in a corn field; details: 150 g a.i./ha, after treatment
Summary of the method: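 Field trial in a corn field following GB/T 17980.42-2000. Test compounds were formulated as 10% emulsifiable concentrates, diluted in water and sprayed post-emergence at 150 g(a.i.)/ha when corn had 2 to 5 leaves, with 4 replicates on 20 m^2 plots. Control of Digitaria sanguinalis was scored on a 1-9 scale based on weed damage relative to the untreated blank area.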

nutgrass flatsedge = experiment: Field test for weed control in a corn field; details: 150 g a.i./ha, after treatment
Summary of the method: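 Herbicidal effect on nutgrass flatsedge was measured in a field planted with corn, using the GB/T 17980.42-2000 method. Emulsifiable concentrates (10%) in water were sprayed at 150 g(a.i.)/ha during the 2-leaf to 5-leaf corn stage, on 20 m^2 plots repeated 4 times. 25% mesotrione oil dispersion was the control agent. Activity was scored from 1 to 9 by weed remaining relative to blank control plots.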

Chenopodium album = experiment: Field test for weed control in a corn field; details: 150 g a.i./ha, after treatment
Summary of the method: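 Field weed-control testing in corn, run per GB/T 17980.42-2000, scored Chenopodium album on a 1-9 level scale, where each level matches a percentage range of weed remaining relative to the blank control area. Sprays of 10% emulsifiable concentrates in water delivered 150 g(a.i.)/ha at the corn 2-leaf to 5-leaf stage on 20 m^2 plots, four replicates each. Mesotrione 25% oil dispersion served as reference.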

Amaranthus retroflexus [11] = experiment: Herbicidal activity test for indoor pre-emergence soil treatment; set-up: key: 1-9 levels; higher = more weed remaining vs blank control; details: 150 g a.i./ha, visual inspection 21 days after treatment
Summary of the method: (§2)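 Pre-emergence soil spray per NY/T 1155.3-2006: weed seeds sown in moistened neutral sandy loam (organic content ≤2%), covered with 0.5–2.0 cm soil, then sprayed 24 h later with a water-diluted 10% emulsifiable concentrate at 150 g(a.i.)/ha. Visual rating after 21 days on a 1–9 scale.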

Digitaria sanguinalis [12] = experiment: as above; set-up: key: 1-9 levels; higher = more weed remaining vs blank control; details: 150 g a.i./ha, visual inspection 21 days after treatment
Summary of the method: as §2

green bristlegrass [13] = experiment: as above; set-up: key: level 1-9; higher = more weed remaining vs blank control; details: 150 g a.i./ha, visual inspection 21 days after treatment
Summary of the method: as §2

Barnyard grass [14] = experiment: as above; set-up: key: level 1-9; higher = more weed remaining vs blank control; details: 150 g a.i./ha, visual inspection 21 days after treatment
Summary of the method: as §2

Piemarker [15] = experiment: as above; set-up: key: level 1-9; higher = more weed remaining vs blank control; details: 150 g a.i./ha, visual inspection 21 days after treatment
Summary of the method: as §2

Humulus scandens [16] = experiment: as above; details: 150 g a.i./ha, visual inspection 21 days after treatment
Summary of the method: as §2

Gramineae = experiment: Post-emergence herbicidal activity test in a paddy field; set-up: key: level scale; higher level = more weed left vs blank control; details: 150 g a.i./ha (penoxsulam control 250 g(a.i.)/h)
Summary of the method: (§3)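 Efficacy was visually estimated 15 and 30 days after spraying, grading weed coverage relative to an untreated neighbouring plot (level 2 = 0 to 2.5%, level 9 = 67.6 to 100%). Treatments were 150 g(a.i.)/ha from 10% emulsifiable concentrates applied at the 4-5 leaf rice stage, four repeats of 50 m^2 each.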

Broadleaf weed = experiment: as above; set-up: key: level scale; higher level = more weed left vs blank control; details: 150 g a.i./ha (penoxsulam control 250 g(a.i.)/h)
Summary of the method: as §3

Cyperaceae = experiment: as above; set-up: key: level scale; higher level = more weed left vs blank control; details: 150 g a.i./ha (penoxsulam control 250 g(a.i.)/h)
Summary of the method: as §3

COc1ccc(OC)c(C(=O)NCc2cccc(F)c2)c1 [Compound A22, N-(3-fluorobenzyl)-2,5-dimethoxybenzamide]
Herbicidal Activity Green bristlegrass (green bristlegrass [1]): 2 (equivalent to 0 to 2.5% of the weed in the blank control area) | Herbicidal Activity Barnyard grass (Barnyard grass [2]): 1 | Herbicidal Activity Humulus scandens (Humulus scandens [3]): 1 | Herbicidal Activity Amaranthus retroflexus (Amaranthus retroflexus [4]): 1 | Herbicidal Activity Digitaria sanguinalis (Digitaria sanguinalis [5]): 1 | Herbicidal Activity Piemarker (Piemarker [6]): 1 | Post-emergence weed control effect, Convolvulus arvensis (Convolvulus arvensis): 1 | Post-emergence weed control effect, Green bristlegrass (green bristlegrass [7]): 2 (equivalent to 0 to 2.5% of the weed in the blank control area) | Post-emergence weed control effect, Portulaca oleracea (Portulaca oleracea): 1 | Post-emergence weed control effect, Barnyard grass (Barnyard grass [8]): 2 (equivalent to 0 to 2.5% of the weed in the blank control area) | Post-emergence weed control effect, Amaranthus retroflexus (Amaranthus retroflexus [9]): 1 | Post-emergence weed control effect, Goose grass (goosegrass): 2 (equivalent to 0 to 2.5% of the weed in the blank control area) | Post-emergence weed control effect, Solanum nigrum (Solanum nigrum): 2 (equivalent to 0 to 2.5% of the weed in the blank control area) | Post-emergence weed control effect, Acalypha australis (Acalypha australis): 2 (equivalent to 0 to 2.5% of the weed in the blank control area) | Post-emergence weed control effect, Digitaria sanguinalis (Digitaria sanguinalis [10]): 1 | Post-emergence weed control effect, Nutgrass flatsedge (nutgrass flatsedge): 2 (equivalent to 0 to 2.5% of the weed in the blank control area) | Post-emergence weed control effect, Chenopodium album (Chenopodium album): 1 | Herbicidal Activity Amaranthus retroflexus (Amaranthus retroflexus [11]): 2 (equivalent to 0 to 2.5% of the weed in the blank control area) | Herbicidal Activity Digitaria sanguinalis (Digitaria sanguinalis [12]): 1 | Herbicidal Activity Green bristlegrass (green bristlegrass [13]): 2 (equivalent to 0 to 2.5% of the weed in the blank control area) | Herbicidal Activity Barnyard grass (Barnyard grass [14]): 1 | Herbicidal Activity Piemarker (Piemarker [15]): 2 (equivalent to 0 to 2.5% of the weed in the blank control area) | Herbicidal Activity Humulus scandens (Humulus scandens [16]): 4 (equivalent to 5.1 to 10% of the weed in the blank control area) | Herbicidal activity 15 days after treatment Gramineae (Gramineae; 15 days after treatment): 1 | Herbicidal activity 30 days after treatment Gramineae (Gramineae; 30 days after treatment): 1 | Herbicidal activity 15 days after treatment Broadleaf weed (Broadleaf weed; 15 days after treatment): 2 (equivalent to 0 to 2.5% of the weed in the blank control area) | Herbicidal activity 30 days after treatment Broadleaf weed (Broadleaf weed; 30 days after treatment): 1 | Herbicidal activity 15 days after treatment Cyperaceae (Cyperaceae; 15 days after treatment): 2 (equivalent to 0 to 2.5% of the weed in the blank control area) | Herbicidal activity 30 days after treatment Cyperaceae (Cyperaceae; 30 days after treatment): 1
